Reference: patent US9775920B2, “Use of N-(4-isopropylphenyl)-5-amino-isoindoline” (Institute of Nuclear Energy Research, Atomic Energy …, priority 2015, dated 2017)
Entries after “also recorded” stand apart in the source; their conditions may differ.

Assays:
β-amyloid = conditions: stated as known; cited from earlier work
Aβ40 = Aβ40 (Homo sapiens, UniProt P05067); experiment: Competition with fluorescent dye ThT for binding to Aβ40 (in-vitro assay); conditions: FIG. 1
Description: Competition for fluorescent binding to Aβ40: the inhibition test of competition binding to amyloid was carried out, in which 2 μM Aβ40, 1 μM amyloid fluorescent dye ThT, and 0.47 nM, 0.94 nM, 4.7 nM, 9.4 nM, 47 nM, 94 nM, 470 nM, 940 nM, 4700 nM and 9400 nM of standard compounds (PiB and BTA-1) and the compound of the present invention as the competing compounds were used. The reaction was carried out for 2 hrs at room temperature, which was excited by using Anthos Zenyth 3100 at an excitation wavelength of 485 nm, and then emitted a florescence of 535 nm. The binding rate of ThT to amyloid was set to 1 where no compound of the present invention was added to compete with ThT for binding. The PiB and BTA-1 were used as positive controls, and the binding rate of each concentration of compound was calculated according to the formula: binding rate=(fluorescence intensity with the compound of the present invention/fluorescence intensity without the compound of the present invention). The result is shown in FIG. 1, in which the horizontal axis is the concentration of the competing compound, and the longitudinal axis is the binding rate of ThT.

Sequence of Aβ40 (P05067 672-711 limits assumed): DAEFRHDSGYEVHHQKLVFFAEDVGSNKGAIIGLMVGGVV

Structure (SMILES)	affinity to β-amyloid (β-amyloid)	binding rate of ThT to amyloid in competition with the compound (Aβ40; 2 μM Aβ40, 1 μM ThT, 0.47 nM to 9400 nM competing compound, 2 hrs at room temperature, excitation 485 nm, emission 535 nm)	ThT binding rate compared with PiB and BTA-1 (Aβ40; at a low concentration of competing compound)
[11CH3]Nc1ccc(-c2nc3ccc(O)cc3s2)cc1 [PiB]	high affinity		
CC(C)c1ccc(N2Cc3ccc(N)cc3C2)cc1 [the compound of the present invention, N-(4-isopropylphenyl)-5-amino-isoindoline]		can compete with the β-amyloid dye thioflavin T (ThT) for binding to amyloid; also recorded: decrease gradually with the increasing concentration of the compound of the present invention	comparable to that of other known compounds at a low concentration
CNc1ccc(-c2nc3ccccc3s2)cc1 [BTA-1]	high affinity		
